In patent publication US11547697B2, “Heterocyclic compounds and uses thereof” (MILLENNIUM PHARMACEUTICALS, INC., priority 2009, dated 2023) one finds IC50 data, which are given here for 26 compounds.

The structures appear in SMILES notation. Like-named read-outs stand apart in the source and are kept apart here.

What all share (format): biochemical
In one assay the target is p110β/p85α (Homo sapiens (Human), UniProt P42338). Put plainly: PI 3-Kinase (human) HTRF assay, p110β/p85α.
Another assay deals with p110γ (Homo sapiens (Human), UniProt P48736). The assay can be described thus: PI 3-Kinase (human) HTRF assay, p110γ. On the technique in general: In TR-FRET formats the signal depends on donor and acceptor labels being close together.
Chain of p110γ (P48736 whole entry): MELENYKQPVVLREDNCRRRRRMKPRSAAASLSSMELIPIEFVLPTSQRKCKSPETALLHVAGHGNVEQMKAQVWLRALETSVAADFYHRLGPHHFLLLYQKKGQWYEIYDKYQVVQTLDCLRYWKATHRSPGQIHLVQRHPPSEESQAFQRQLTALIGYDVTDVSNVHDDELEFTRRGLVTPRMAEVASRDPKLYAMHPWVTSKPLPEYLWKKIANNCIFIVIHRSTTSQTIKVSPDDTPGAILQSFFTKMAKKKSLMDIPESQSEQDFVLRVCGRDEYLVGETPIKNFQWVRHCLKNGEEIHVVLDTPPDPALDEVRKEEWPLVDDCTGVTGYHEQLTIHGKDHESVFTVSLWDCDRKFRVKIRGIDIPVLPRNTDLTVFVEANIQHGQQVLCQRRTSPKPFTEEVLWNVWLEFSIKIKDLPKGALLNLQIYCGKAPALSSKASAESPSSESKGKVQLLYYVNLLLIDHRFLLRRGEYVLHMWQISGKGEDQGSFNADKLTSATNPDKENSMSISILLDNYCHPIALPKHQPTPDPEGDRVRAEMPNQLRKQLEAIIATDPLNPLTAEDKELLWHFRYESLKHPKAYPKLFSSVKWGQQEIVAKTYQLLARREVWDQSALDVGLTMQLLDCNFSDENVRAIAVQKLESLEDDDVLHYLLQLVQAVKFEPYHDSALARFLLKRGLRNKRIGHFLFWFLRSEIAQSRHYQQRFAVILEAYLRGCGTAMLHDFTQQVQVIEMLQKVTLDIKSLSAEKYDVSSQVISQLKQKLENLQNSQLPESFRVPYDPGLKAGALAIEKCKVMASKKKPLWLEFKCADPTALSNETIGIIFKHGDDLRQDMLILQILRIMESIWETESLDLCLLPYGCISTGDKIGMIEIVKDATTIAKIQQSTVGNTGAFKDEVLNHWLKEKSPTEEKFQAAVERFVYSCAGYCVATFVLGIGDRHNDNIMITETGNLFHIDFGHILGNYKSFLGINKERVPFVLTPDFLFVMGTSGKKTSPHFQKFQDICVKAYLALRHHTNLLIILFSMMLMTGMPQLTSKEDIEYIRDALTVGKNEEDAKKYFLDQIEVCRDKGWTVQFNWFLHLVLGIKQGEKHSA
In another assay the target is p110α/p85α (Homo sapiens (Human), UniProt P42336). The assay can be described thus: PI 3-Kinase (human) HTRF assay, p110α/p85α.
Chain of p110α/p85α (P42336 whole entry): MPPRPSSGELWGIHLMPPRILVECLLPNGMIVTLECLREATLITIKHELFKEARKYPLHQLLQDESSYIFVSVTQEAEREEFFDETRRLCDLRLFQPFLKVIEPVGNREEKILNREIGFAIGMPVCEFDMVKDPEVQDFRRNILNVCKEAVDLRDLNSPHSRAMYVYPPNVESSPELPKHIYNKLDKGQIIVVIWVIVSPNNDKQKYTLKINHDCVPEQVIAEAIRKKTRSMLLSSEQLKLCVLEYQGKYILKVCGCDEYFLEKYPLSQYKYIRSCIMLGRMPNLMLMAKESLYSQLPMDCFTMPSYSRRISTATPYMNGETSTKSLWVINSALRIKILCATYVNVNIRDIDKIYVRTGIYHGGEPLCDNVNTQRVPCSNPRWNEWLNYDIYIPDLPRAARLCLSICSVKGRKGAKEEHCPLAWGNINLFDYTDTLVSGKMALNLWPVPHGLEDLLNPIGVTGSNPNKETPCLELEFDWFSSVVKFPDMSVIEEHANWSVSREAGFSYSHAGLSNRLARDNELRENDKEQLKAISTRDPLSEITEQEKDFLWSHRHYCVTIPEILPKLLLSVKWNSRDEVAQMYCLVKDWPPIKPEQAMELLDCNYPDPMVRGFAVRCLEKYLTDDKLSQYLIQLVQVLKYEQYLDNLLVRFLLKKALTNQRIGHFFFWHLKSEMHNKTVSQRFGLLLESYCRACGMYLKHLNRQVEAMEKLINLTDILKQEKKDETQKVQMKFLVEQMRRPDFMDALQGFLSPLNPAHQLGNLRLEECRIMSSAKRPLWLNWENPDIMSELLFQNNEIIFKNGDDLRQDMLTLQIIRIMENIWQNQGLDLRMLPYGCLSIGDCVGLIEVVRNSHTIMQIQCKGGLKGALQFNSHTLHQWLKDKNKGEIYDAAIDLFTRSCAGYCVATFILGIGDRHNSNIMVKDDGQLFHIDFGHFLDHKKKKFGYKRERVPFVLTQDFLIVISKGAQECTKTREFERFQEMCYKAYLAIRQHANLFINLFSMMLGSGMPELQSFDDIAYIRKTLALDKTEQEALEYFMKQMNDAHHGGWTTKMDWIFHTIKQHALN
Chain of p110α/p85α (P27986 whole entry partner): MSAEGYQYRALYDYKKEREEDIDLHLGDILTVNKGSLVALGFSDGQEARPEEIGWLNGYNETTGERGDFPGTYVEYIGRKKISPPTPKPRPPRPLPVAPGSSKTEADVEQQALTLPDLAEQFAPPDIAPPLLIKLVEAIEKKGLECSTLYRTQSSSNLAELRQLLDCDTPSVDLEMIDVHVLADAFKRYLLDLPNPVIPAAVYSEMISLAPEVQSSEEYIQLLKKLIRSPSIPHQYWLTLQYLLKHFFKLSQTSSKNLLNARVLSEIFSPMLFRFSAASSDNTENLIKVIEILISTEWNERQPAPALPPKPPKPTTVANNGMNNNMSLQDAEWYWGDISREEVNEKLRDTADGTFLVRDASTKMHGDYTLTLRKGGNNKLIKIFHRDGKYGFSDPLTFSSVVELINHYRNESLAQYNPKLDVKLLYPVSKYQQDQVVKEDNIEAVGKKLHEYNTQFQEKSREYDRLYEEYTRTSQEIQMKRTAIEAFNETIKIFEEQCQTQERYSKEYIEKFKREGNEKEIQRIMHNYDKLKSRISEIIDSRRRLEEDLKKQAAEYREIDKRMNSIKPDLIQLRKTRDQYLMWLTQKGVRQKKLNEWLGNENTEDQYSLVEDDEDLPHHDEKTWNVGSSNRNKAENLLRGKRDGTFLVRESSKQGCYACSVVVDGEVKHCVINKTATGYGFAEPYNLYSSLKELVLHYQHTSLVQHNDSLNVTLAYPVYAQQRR
[1] abbreviates: in vitro, read-out: PI3K β IC50.
Where [2] appears, read: in vitro, read-out: PI3K γ IC50.
[3] abbreviates: in vitro, read-out: PI3K α IC50.

Chain of p110β/p85α (P42338 whole entry): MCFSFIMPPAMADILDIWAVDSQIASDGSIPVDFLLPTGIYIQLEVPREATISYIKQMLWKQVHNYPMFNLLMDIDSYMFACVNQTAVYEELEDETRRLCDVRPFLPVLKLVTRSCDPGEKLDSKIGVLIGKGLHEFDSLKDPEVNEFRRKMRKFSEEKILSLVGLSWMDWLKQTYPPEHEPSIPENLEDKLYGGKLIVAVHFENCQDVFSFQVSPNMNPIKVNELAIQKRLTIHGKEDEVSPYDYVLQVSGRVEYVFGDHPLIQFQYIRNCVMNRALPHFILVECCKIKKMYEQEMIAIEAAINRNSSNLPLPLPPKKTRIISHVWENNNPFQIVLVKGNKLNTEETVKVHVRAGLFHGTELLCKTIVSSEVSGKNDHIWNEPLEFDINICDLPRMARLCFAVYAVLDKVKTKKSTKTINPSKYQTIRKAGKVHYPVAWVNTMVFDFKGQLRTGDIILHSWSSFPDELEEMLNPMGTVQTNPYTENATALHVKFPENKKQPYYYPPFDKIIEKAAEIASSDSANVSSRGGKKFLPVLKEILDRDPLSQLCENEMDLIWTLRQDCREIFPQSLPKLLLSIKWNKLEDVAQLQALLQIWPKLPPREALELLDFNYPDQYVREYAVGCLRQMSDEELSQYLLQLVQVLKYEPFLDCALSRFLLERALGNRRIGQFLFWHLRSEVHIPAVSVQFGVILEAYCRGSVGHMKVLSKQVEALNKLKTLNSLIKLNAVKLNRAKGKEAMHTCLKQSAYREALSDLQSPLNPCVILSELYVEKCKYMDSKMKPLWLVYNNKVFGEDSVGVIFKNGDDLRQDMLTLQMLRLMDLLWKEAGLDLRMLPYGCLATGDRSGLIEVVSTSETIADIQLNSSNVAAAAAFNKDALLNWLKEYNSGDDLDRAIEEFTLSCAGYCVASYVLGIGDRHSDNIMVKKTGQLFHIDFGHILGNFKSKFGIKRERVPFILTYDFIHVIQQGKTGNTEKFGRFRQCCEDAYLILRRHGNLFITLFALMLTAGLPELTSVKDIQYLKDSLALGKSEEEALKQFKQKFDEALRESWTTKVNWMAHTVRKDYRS
Chain of p110β/p85α (P27986 whole entry partner): as the sequence (P27986 whole entry partner) above

Regarding `Nc1nc2cc(-c3ccc4ncn(CCN5CCOCC5)c(=O)c4c3)ccc2o1` [compound 289], the values for the IC50 on p110β/p85α (setting [1]), on p110γ (setting [2]) and on p110α/p85α (setting [3]) were less than 10 µM, less than 1 µM and less than 1 µM, respectively.

Take `Nc1nc2cc(-c3ccc4nnc(-c5cccnc5)n4c3)ccc2o1` [compound 300]: the IC50 at p110β/p85α (setting [1]) and at p110α/p85α (setting [3]) was less than 10 µM in each case.

In the case of `Nc1nc2ccc(-c3ccc4nnc(-c5cccnc5)n4c3)cc2o1` [compound 301], the IC50 on p110β/p85α (setting [1]) and on p110α/p85α (setting [3]) was less than 10 µM each time.

Take `C[C@H]1CN(c2cnc3ccc(-c4ccc5sc(N)nc5c4)cc3n2)CCN1` [compound 307]: the IC50 at p110β/p85α (setting [1]) and at p110α/p85α (setting [3]) was less than 1 µM in each case.

Take `C[C@H]1CN(c2cnc3ccc(-c4ccc5nc(N)sc5c4)cc3n2)CCN1` [compound 308]: the IC50 (in general, the point on the concentration scale where inhibition reaches its midpoint) at p110β/p85α (setting [1]) was less than 1 µM; on p110γ (setting [2]), less than 10 µM; at p110α/p85α (setting [3]), less than 1 µM.

Regarding `C[C@H]1CN(c2cnc3ccc(-c4ccc5nc(N)oc5c4)cc3n2)CCN1` [compound 309], the IC50 is less than 1 µM at p110β/p85α (setting [1]), less than 10 µM at p110γ (setting [2]) and less than 1 µM at p110α/p85α (setting [3]).

With `Nc1nc2cc(-c3ccc4ncc(C(=O)N(CCO)CCO)n4c3)ccc2o1` [compound 316], the IC50 at p110β/p85α (setting [1]) was less than 10 µM; on p110γ (setting [2]) it was less than 10 µM; on p110α/p85α (setting [3]) it was less than 1 µM.

For the compound `C[C@H]1CN(c2cnc3cccc(-c4ccc5nc(N)oc5c4)c3n2)CCN1` [compound 343], the IC50 on p110β/p85α (setting [1]) is less than 10 µM.

With `Nc1nc2cc(-c3ccn4ncc(C(=O)N5CCCC5)c4c3)ccc2o1` [compound 346], the concentration for half-maximal inhibition (IC50) on p110β/p85α (setting [1]) is less than 10 µM; on p110γ (setting [2]), less than 1 µM; at p110α/p85α (setting [3]), less than 0.1 µM.

As to `Nc1nc2cc(-c3ccn4ncc(C(=O)N5CCOCC5)c4c3)ccc2o1` [compound 347], the IC50 at p110β/p85α (setting [1]) is less than 10 µM; at p110γ (setting [2]) it was less than 1 µM; on p110α/p85α (setting [3]), less than 1 µM.

For `Cc1cc2oc(N)nc2cc1-c1ccc2ncc(N3CCN[C@@H](C)C3)nc2c1` [compound 351], the results for the IC50 on p110β/p85α (setting [1]) and on p110α/p85α (setting [3]) were less than 1 µM and less than 10 µM, respectively.

For `Cc1cc(-c2ccc3ncc(C(=O)N4CCOCC4)n3c2)cc2nc(N)oc12` [compound 364], the IC50 was less than 10 µM on p110β/p85α (setting [1]), less than 1 µM on p110γ (setting [2]) and less than 1 µM at p110α/p85α (setting [3]).

Turning to `CN(C)C1CN(c2cnc3ccc(-c4ccc5oc(N)nc5c4)cc3n2)C1` [compound 366], the IC50 at p110β/p85α (setting [1]) was less than 10 µM; on p110γ (setting [2]), less than 10 µM; at p110α/p85α (setting [3]), less than 0.1 µM.

Regarding `Nc1nc2cc(-c3ccc4ncc(N5CC(N6CCOCC6)C5)nc4c3)c(Cl)cc2o1` [compound 371], the values for the IC50 on p110β/p85α (setting [1]) and on p110α/p85α (setting [3]) were less than 10 µM and less than 1 µM, respectively.

For `CN1CCN(C(=O)c2cnn3ccc(-c4ccc5oc(N)nc5c4)cc23)CC1` [compound 380], the values for the IC50 on p110β/p85α (setting [1]), on p110γ (setting [2]) and at p110α/p85α (setting [3]) were less than 10 µM, less than 10 µM and less than 1 µM, respectively.

In the case of `CN1CCC(c2cnc3ccc(-c4ccc5oc(N)nc5c4)cc3n2)CC1` [compound 385], the IC50 on p110β/p85α (setting [1]) is less than 10 µM; on p110α/p85α (setting [3]) it was less than 0.1 µM.

As for `COCCN1CCN(c2cnc3ccc(-c4ccc5oc(N)nc5c4)cc3n2)CC1` [compound 387], the IC50 on p110β/p85α (setting [1]) was less than 1 µM; at p110γ (setting [2]), less than 1 µM; on p110α/p85α (setting [3]), less than 0.1 µM.

`C[C@H]1CN(c2cnc3ccc(-c4ccc5oc(N)nc5c4)cc3c2)CCN1` [compound 396]: the IC50 is less than 0.1 µM at p110β/p85α (setting [1]), less than 10 µM at p110γ (setting [2]) and less than 0.1 µM at p110α/p85α (setting [3]).

As to `Nc1nc2cc(-c3ccc4ncc(C(=O)N5CCOCC5)n4c3)cnc2o1` [compound 400], the results for the IC50 on p110β/p85α (read-out: PI3K β In Vitro IC50), on p110γ (read-out: PI3K γ In Vitro IC50) and on p110α/p85α (read-out: PI3K α In Vitro IC50) were less than 10 µM, less than 10 µM and less than 0.1 µM, respectively.

Regarding `CNc1nc2cc(-c3ccc4ncc(C(=O)N5CCOCC5)n4c3)ccc2o1` [compound 406], the IC50 on p110β/p85α (read-out: PI3K β In Vitro IC50) and at p110α/p85α (read-out: PI3K α In Vitro IC50) was less than 10 µM in each case.

For the compound `O=C(c1cnc2ccc(-c3ccc4oc(Nc5ccccc5)nc4c3)cn12)N1CCOCC1` [compound 407], the IC50 on p110β/p85α (read-out: PI3K β In Vitro IC50) is less than 10 µM.

Regarding `Nc1nc2cc(-c3ccc4c(N)n[nH]c4c3)ccc2o1` [compound 428], the figures for the IC50 on p110β/p85α (read-out: PI3K β In Vitro IC50), on p110γ (read-out: PI3K γ In Vitro IC50) and on p110α/p85α (read-out: PI3K α In Vitro IC50) were less than 10 µM, less than 1 µM and less than 10 µM, respectively.

Turning to `CC(=O)Nc1n[nH]c2cc(-c3ccc4oc(N)nc4c3)ccc12` [compound 430], the IC50 on p110β/p85α (read-out: PI3K β In Vitro IC50), on p110γ (read-out: PI3K γ In Vitro IC50) and on p110α/p85α (read-out: PI3K α In Vitro IC50) was less than 10 µM in each case.

As to `Nc1nc2cc(-c3cc(F)c4oc(N)nc4c3)ccc2o1` [compound 432], the IC50 at p110β/p85α (read-out: PI3K β In Vitro IC50) was less than 1 µM; on p110γ (read-out: PI3K γ In Vitro IC50) it was less than 0.1 µM; on p110α/p85α (read-out: PI3K α In Vitro IC50), less than 10 µM.

For the compound `CC(=O)Nc1nc2cc(-c3cc(F)c4oc(N)nc4c3)ccc2s1` [compound 435], the IC50 is less than 10 µM on p110β/p85α (read-out: PI3K β In Vitro IC50), less than 0.1 µM at p110γ (read-out: PI3K γ In Vitro IC50) and less than 10 µM at p110α/p85α (read-out: PI3K α In Vitro IC50).

`CN1CC(n2cnc3ccc(-c4ccc5oc(N)nc5c4)cc3c2=O)C1` [compound 528]: the IC50 on p110β/p85α (read-out: PI3K β In Vitro IC50) was less than 10 µM; on p110α/p85α (read-out: PI3K α In Vitro IC50), less than 1 µM.
